One data set relates to Canidae. As to conditions: oral, Dog Other, clinical signs.
A further data set has as its system Chrysoperla externa. The following applies: not reported; mortality.
A further data set concerns Lepomis macrochirus. As to conditions: acute; duration: 96 hours; mortality.
The next data set has as its system Daphnia magna. As to conditions: acute; duration: 48 hours; mortality.
The test system of a further data set is Bibionidae. The following applies: chronic/long-term; duration: 28 days.
In another data set the test system is Tagia sp. The following applies: acute; duration: 14 days; mortality.
The test system of a further data set is Hypoaspis aculeifer. The following applies: chronic/long-term, duration: 14 days.
The subject of another data set is Apis mellifera. As to conditions: acute; duration: 48 hours; dermal; mortality.
In a further data set the test system is Coturnix japonica. The following applies: acute, oral, mortality.
The subject of another data set is Anas platyrhynchos. As to conditions: oral, mortality.

In brackets after ≈: the same amount, converted by molar mass.

As a reminder, the NOAEL is the highest dose or exposure tested at which no adverse effect was seen. Take `CCOC(=O)CCN(SN(C)C(=O)Oc1cccc2c1OC(C)(C)C2)C(C)C` [Benfuracarb]: the NOAEL worked out at 1 mg/kg-day with Canidae (chronic, duration: 6 months); 1 mg/kg-day with Canidae (chronic, duration: 24 months); 1 mg/kg-day in the data set on Canidae (subchronic, duration: 13 weeks); 1.2 mg/kg-day in the data set with Rattus norvegicus (reproduction developmental, reproduction); 1.8 mg/kg-day with Rattus norvegicus (short-term, duration: 28 days, clinical signs). The LD50 in the data set on Chrysoperla externa was determined as 5.2 g/ha; in the data set with Rattus norvegicus (acute, oral, mortality), 205 mg/kg-day; in the data set on Apis mellifera it was 0.19 µg/piece; with Coturnix japonica (F) it was 39.9 mg/kg-day; in the data set with Coturnix japonica (M), 48.3 mg/kg-day; in the data set with Anas platyrhynchos (acute, unspecified) it was 19.8 mg/kg-day. Further, the LC50 in the data set with Lepomis macrochirus amounted to 0.017 µg/mL (≈ 0.0414 µM); in the data set with Daphnia magna, 0.0099 µg/mL (≈ 0.0241 µM); in the data set on Tagia sp., 58 mg/kg; in the data set on Colinus virginianus (acute, oral, diet, mortality), 179 mg/kg-day; with Anas platyrhynchos (short-term, feed), 15 mg/kg-day. The NOEC in the data set with Bibionidae is 0.001 mg/L; in the data set on Tagia sp., less than 10 mg/kg. The compound also returned an NOEL with Colinus virginianus (reproduction developmental) of 8.93 mg/kg-day. The LEL with Hypoaspis aculeifer (mortality) and with Hypoaspis aculeifer (reproduction) was 1000 g/ha throughout.

Values taken from EPA's ToxValDB 9.5 (doi:10.2903/j.efsa.2009.239r).
